Like-named read-outs stand apart in the source and are kept apart here.
Assays:
C. parvum [1] = assay: 48 h Cryptosporidium growth inhibition assay; format: cell-based, Cryptosporidium parvum; conditions: compound added 3 h post-infection, read at 48 h
From the text: As a first step in developing specific Cryptosporidium mode of action assays, we conducted a series of light microscopy time-lapse and transmission electron microscopy (TEM) time course experiments in order to precisely define C. parvum development within the HCT-8 cell culture system. […] This synchronicity was exploited by modifying a previously developed high-content microscopy assay. These assay modifications enabled the evaluation of several key events within the life cycle: host cell invasion, intracellular replication, host cell egress and establishment of new parasitophorous vacuoles, and sexual differentiation. […] Since the methods all used automated liquid handling, imaging, and image analysis, the assay methods all incorporated nuclear staining to monitor host cell numbers and enable recognition of HCT-8 cell monolayer damage, for example as an artifact from a malfunctioning plate washer or from unanticipated cytotoxicity of the compounds.
Human ileocecal adenocarcinoma (HCT-8) cells were purchased from ATCC (catalog# CCL-244) and cultured in ATCC modified RPMI-1640 medium (Gibco, catalog# A10491–01), supplemented with 10% heat-inactivated fetal bovine serum (Sigma-Aldrich, catalog# 12306C) and 120 U/mL penicillin and 120 μg/mL streptomycin (Gibco, catalog# 15140-122) (culture media). […] For all experiments, HCT-8 cells between passages 9 and 39 were used. C. parvum (Iowa isolate) oocysts were purchased from Bunchgrass Farm (Deary, ID), stored at 4 °C and used within 5 months of collection from an infected calf. To induce excystation, oocysts were first treated with 10 mM hydrochloric acid for 10 min at 37 °C, spun at 14,000×g for 4.5 min at room temperature, treated with 2 mM sodium taurocholate for 10 min at 16 °C, spun as before, and resuspended in culture media for infection.
A modification of a previously reported immunofluorescence assay was used to determine the EC50 and EC90 of compounds[13]. HCT-8 cells were grown to ≥ 90% confluence in 384-well plates (Corning, catalog# 353962) and infected with 5500 oocysts per well after they were induced for excystation as described above. Different concentrations of compounds were added 3 h post-infection and plates were incubated for another 45 h in a 5% CO2 incubator at 37 °C. Wells were then washed 3 times with PBS containing 111 mM D-galactose (PBS-D-gal), fixed with 4% paraformaldehyde (PFA) in PBS for 15 min at room temperature, permeabilized with 0.25% Triton X-100 for 10 min at 37 °C, washed 3 times with PBS with 0.1% Tween 20, and blocked with 4% bovine serum albumin (BSA) in PBS for 2 h at 37 °C or 4 °C overnight. Parasitophorous vacuoles were stained with 1.33 µg/mL of fluorescein-labeled Vicia villosa lectin (Vector Laboratories, catalog# FL-1231) diluted in 1% BSA in PBS with 0.1% Tween 20 for 1 h at 37 °C, followed by addition of Hoechst 33258 (AnaSpec, catalog# AS-83219) at 0.09 mM diluted in water for another 15 min at 37 °C. Wells were then washed 5 times with PBS containing 0.1% Tween 20. A Nikon Eclipse Ti2000 epifluorescence microscope with an automated stage was programmed using NIS-Elements Advanced Research software (Nikon, USA) to focus on the center of each well and take a 3 × 3 or 6 × 6 composite image using an EXi blue fluorescence microscopy camera (QImaging, Canada) with a 20 × objective (NA = 0.45). Nuclei and parasite images were separately exported as.tif files and analyzed using macros developed on the ImageJ platform (National Institutes of Health)[13].

[2] = test system: C. parvum DMC1 expression; assay: Sexual differentiation assay (DMC1 expression); format: cell-based, Cryptosporidium parvum; conditions: compound at asexual EC90, 48-72 h; for Asexual to sexual differentiation: Mean % DMC1 inhibition (normalized to host nuclei), Average: average of replicates; for Asexual to sexual differentiation: Mean % DMC1 inhibition (normalized to host nuclei), Replicate 1a: single replicate 1; for Asexual to sexual differentiation: Mean % DMC1 inhibition (normalized to host nuclei), Replicate 2a: single replicate 2; for Asexual to sexual differentiation: Mean % DMC1 inhibition (normalized to host nuclei), Replicate 3a: single replicate 3
From the text: We utilized DMC1 as a marker of C. parvum sexual development, and used the anti-DMC1 monoclonal antibody to develop a moderate-throughput high-content microscopy assay for characterizing anticryptosporidial compounds (Fig. 6a). […] Therefore, in order to enable numerical comparison of the ability of compounds to block sexual development with moderate throughput, we adopted a strategy of reporting the percent inhibition of DMC1 expression by the previously determined EC90 of each compound in the standard asexual development assay (Fig. 6c and Supplementary Table 2).
Fig. 6 Assay to measure asexual-to-sexual-stage conversion. a Schematic of the experimental approach. […] For b and c the mean and SD combined from at least two biological replicates with four technical replicates per experiment are shown. […] At given time points post-infection, infected cells were washed 3 times with PBS containing 111 mM of D-galactose, fixed for 15 min at room temperature with 4% paraformaldehyde in PBS, and permeabilized with 0.25% triton X-100 in PBS for 10 min at 37 °C. Cells were then washed 3 times with PBS and blocked at least overnight at 4 °C with 1% BSA in PBS (blocking buffer). Cells were stained with monoclonal antibody (1H10G7), either neat culture supernatant or 12.8 µg/mL of purified IgG in blocking buffer for 1 h at 37 °C, followed by 2 washes with PBS. Cells were then co-stained with a 1:500 dilution (4 µg/mL) of Alexa Fluor 568 goat anti-mouse IgG (Invitrogen, catalog# A-11004) and 1.33 µg/mL fluorescein-labeled Vicia villosa lectin (Vector Laboratories, catalog# FL-1231) diluted in blocking buffer for 1 h at 37 °C. Stains were then removed and 0.09 mM Hoechst 33258 (AnaSpec, catalog# AS-83219) also diluted in blocking buffer was added for another 15 min at 37 °C, followed by 2 PBS washes and imaging on a Nikon Eclipse Ti2000 epifluorescence microscope run with NIS-Elements Advanced Research software (Nikon, USA) and equipped with an EXi blue fluorescent microscopy camera (QImaging, Canada). For enumerating parasites, tiled 2 × 2 images with 15% overlapping edges were taken using a 40 × dry objective (0.7 NA), and for finer details, Z stack images were acquired using a 60 × oil objective (1.4 NA). Lectin positive cells in focus were first counted, followed by DMC1.
For compound dose-response studies, the same assay was performed in 384-well plates and imaged using a 20 × dry objective (NA = 0.45). Tiled 4 × 4 to 6 × 6 images were taken. Images were analyzed using ImageJ software and the custom macro provided in Supplementary Method 2.

C. parvum [3] = assay: Egress, motility, reinvasion assay (PV ratio); conditions: compound at EC90; for Egress and Reinvasion Assay: Mean PV ratios (19.5h:6h), Average: average of replicates; for Egress and Reinvasion Assay: Mean PV ratios (19.5h:6h), Replicate 1a: single replicate 1; for Egress and Reinvasion Assay: Mean PV ratios (19.5h:6h), Replicate 2a: single replicate 2; for Egress and Reinvasion Assay: Mean PV ratios (19.5h:6h), Replicate 3a: single replicate 3; for Egress and Reinvasion Assay: Mean PV ratios (19.5h:6h), Replicate 4a: single replicate 4
Method: For quantification of parasitophorous vacuoles over time, HCT-8 cells were grown to greater than 90% confluence in 384-well plates and infected with 11,000 oocysts after triggering excystation.

[4] = read-out: Regular 3 to 48 h assay in vitro EC90, C. parvum in HCT-8 cells
[5] = Cryptosporidium parvum, HCT-8, read-out: Regular 3 to 48 h assay in vitro EC90, C. parvum in HCT-8 cells

Row | SMILES | EC90 (C. parvum [1]; Cryptosporidium parvum, read-out: Regular 3 to 48 h assay in vitro EC90, C. parvum in HCT-8 cells) [µM] | Asexual to sexual differentiation: Mean % DMC1 inhibition (normalized to host nuclei), Average [2] [%] | Asexual to sexual differentiation: Mean % DMC1 inhibition (normalized to host nuclei), Replicate 1a [2] [%] | Asexual to sexual differentiation: Mean % DMC1 inhibition (normalized to host nuclei), Replicate 2a [2] [%] | Egress and Reinvasion Assay: Mean PV ratios (19.5h:6h), Average (C. parvum [3]) | Egress and Reinvasion Assay: Mean PV ratios (19.5h:6h), Replicate 1a (C. parvum [3]) | Egress and Reinvasion Assay: Mean PV ratios (19.5h:6h), Replicate 2a (C. parvum [3]) | EC90 (C. parvum [1]; [4]) [µM] | Egress and Reinvasion Assay: Mean PV ratios (19.5h:6h), Replicate 3a (C. parvum [3]) | Egress and Reinvasion Assay: Mean PV ratios (19.5h:6h), Replicate 4a (C. parvum [3]) | Egress and Reinvasion Assay: Mean PV ratios (19.5h:6h), Replicate 5a (C. parvum [3]; single replicate 5) | Egress and Reinvasion Assay: Mean PV ratios (19.5h:6h), Replicate 6a (C. parvum [3]; single replicate 6) | EC90 (C. parvum [1]; [5]) [µM] | Asexual to sexual differentiation: Mean % DMC1 inhibition (normalized to host nuclei), Replicate 3a [2] [%] | Asexual to sexual differentiation: Mean % DMC1 inhibition (normalized to host nuclei), Replicate 4a ([2]; single replicate 4) [%] | Asexual to sexual differentiation: Mean % DMC1 inhibition (normalized to host nuclei), Replicate 5a ([2]; single replicate 5) [%]
1 | O=c1[nH]c(=O)n([C@H]2C[C@H](O)[C@@H](CO)O2)cc1F [Floxuridine] | 0.14 | -7.53 | -14.02 | -1.05 | 0.74 | 0.67 | 0.80 |  |  |  |  |  |  |  |  | 
2 | CN(C)S(=O)(=O)c1ccc(C(=O)N2CCN(c3ccc4nncn4n3)CC2)cc1 [D-44] |  | 74.35 | 86.32 | 62.37 | 2.21 | 2.22 | 2.32 | 11.6 | 1.73 | 2.75 | 1.96 | 2.29 |  |  |  | 
3 | CN(C)C[C@H](O)Cn1c2ccc(Br)cc2c2cc(Br)ccc21 (racemic) [Wiskostatin] |  | 45.76 | 43.95 | 47.58 | 1.04 | 1.34 | 0.98 | 11.3 | 0.80 | 1.04 |  |  | 11.3 |  |  | 
4 | Oc1c(C(Nc2ccccn2)c2cccc(Oc3ccccc3)c2)ccc2cccnc12 (stereo not shown) [A-2] |  | 36.33 | 56.25 | 16.42 | 0.69 | 0.67 | 0.71 | 1.34 |  |  |  |  |  |  |  | 
5 | C[C@H]1CCC[C@H](C[C@H]2Cc3cc(O)cc(O)c3C(=O)O2)O1 [Cladosporin] |  | 94.16 | 91.92 | 96.40 | 0.68 | 0.52 | 0.83 |  |  |  |  |  | 0.49 |  |  | 
6 | NC[C@@H]1O[C@H](O[C@H]2[C@@H](O)[C@H](O[C@@H]3[C@@H](O)[C@H](N)C[C@H](N)[C@H]3O[C@H]3O[C@H](CO)[C@@H](O)[C@H](O)[C@H]3N)O[C@@H]2CO)[C@H](N)[C@@H](O)[C@@H]1O [Paromomycin] |  | 43.80 | 58.59 | 65.91 | 2.15 | 2.19 | 2.11 |  |  |  |  |  | 2390 | 6.88 |  | 
7 | CC(=O)Oc1ccccc1C(=O)Nc1ncc([N+](=O)[O-])s1 [Nitazoxanide] |  | 81.79 | 79.14 | 81.57 | 1.40 | 1.33 | 1.77 |  | 1.37 | 1.12 |  |  | 3.52 | 59.72 | 95.07 | 93.41
8 | CCOc1ccc2cc(-c3nn(CC4CCN(C)CC4)c4ncnc(N)c34)ccc2c1 [BKI-1294] |  | 45.56 | 58.94 | 32.18 | 1.49 | 1.81 | 1.18 | 22.4 |  |  |  |  |  |  |  | 
9 | O=C(CC1NCCCC1O)Cn1cnc2cc(Br)c(Cl)cc2c1=O (stereo not shown) [Halofuginone] |  | 68.25 | 51.29 | 73.88 | 0.69 | 0.76 | 1.01 |  | 0.53 | 0.46 |  |  | 0.34 | 79.59 |  | 

Source: paper PMC6478823, “A suite of phenotypic assays to ensure pipeline diversity when prioritizing drug-like Cryptosporidium growth inhibitors” (Nature Communications, 2019)
